Values quoted from earlier work as cited in patent US9442092B2, “Methods for treatment of autism” (priority 2011, dated 2016).

Tests used:
[1] = in vivo

| SMILES | Increase of HIV levels (HIV) [%] | Association with Autism [1] |
| --- | --- | --- |
| COc1cc2c(c3oc(=O)c4c(c13)CCC4=O)[C@@H]1C=CO[C@@H]1O2 [Aflatoxin] | 500 |  |
| CC(C)Cc1ccc(C(C)C(=O)O)cc1 (stereo not drawn) [Ibuprofen] |  | no association |
| CN1C(=O)[C@]23CC4=CC=C[C@H](O)[C@H]4N2C(=O)[C@@]1(CO)SS3 [gliotoxin, Gliotoxin] | 500 |  |
